Experimental data taken from patent US8673585B2, “Biochemical serum marker” (Biouniversa S.r.l., priority 2009, dated 2014).

What was measured:
[1] = tested on: J774 cells; test: Macrophage activation assay: production of nitrites in the culture medium (Griess reagent); format: cell-based, murine
Protocol: The recombinant BAG3 protein was used for macrophage activation assays, in order to determine the possible role on blood cells of the protein released in the serum. For this purpose, the murine monocyte J774 cell line was treated with different concentrations of the recombinant BAG3 protein, using a pro-inflammatory agent such as lipopolysaccharide (LPS) as a positive control. J774 cells were plated at 60% confluence and incubated for 24 h with the recombinant BAG3 protein at concentrations of 250, 500 ng/ml and 1 mg/ml, alone or in combination with LPS at a concentration of 10 ng/ml.
Moreover the production of nitrites in the culture medium, which correlates with monocyte activation, was verified with the Griess reagent (1% sulfanilamide, 0.1% naftilethylenediamine, 5% phosphoric acid) and measured in a Beckman DU-62 spectrophotometer at 550 nM (FIG. 9b).

[2] = tested on: J774 cells; test: Binding of FITC-conjugated recombinant BAG3 to the cell surface (confocal microscopy); format: cell-based, murine; conditions: FITC-conjugated protein added to the culture medium for 1 hour
Protocol: The BAG3 recombinant protein was then conjugated to FITC using the FluoroTag FITC Conjugation Kit (Sigma). Equal amounts of BSA-FITC (negative control) and rBAG3-FITC were added to the culture medium for 1 hour. Cells were then fixed with a solution of 3.7% formaldehyde and analyzed by a Zeiss LSM confocal microscope.
Binding of the BAG3 protein to the surface of J774 cells was confirmed by use of the recombinant protein conjugated with a fluorophore. BAG3 binding is specific because it is not observed when other proteins, for example BSA, are used instead of BAG3.

| Substance | production of nitrites compared to the control (untreated cells) ([1]; 24 h, 500 ng/ml, p<0.001, FIG. 9b) | dose dependence of activity (iNOS expression and nitrites) ([1]; 24 h, 250, 500 ng/ml and 1 mg/ml, FIGS. 9a and b) | binding to the surface of J774 cells [2] |
| --- | --- | --- | --- |
| recombinant BAG3 protein: Recombinant human BAG3 protein expressed in E. coli, His-tagged, purified by affinity chromatography; FITC-conjugated for the binding test | increased three-fold | dose-dependent | confirmed |
| bovine serum albumin [BSA, reference compound] | – | – | not observed |
